Measured values from PubChem BioAssay AID1259407 (Chemical Carcinogenesis Research Information System (CCRIS), 2018).
Calls of active or inactive are those of the source. No rule for the calls is given here.

Test system: CCRIS mutagenicity, Ames/micronucleus/aberration tests
Assay: CCRIS mutagenicity studies
[1] = Test System: AMES SALMONELLA TYPHIMURIUM, Strain/Indicator: TA97, Metabolic Activation: NONE, Method: PREINCUBATION
[2] = Test System: AMES SALMONELLA TYPHIMURIUM, Strain/Indicator: TA97, Metabolic Activation: RAT, LIVER, S-9, AROCLOR 1254 (10 OR 30%), Method: PREINCUBATION
[3] = Test System: AMES SALMONELLA TYPHIMURIUM, Strain/Indicator: TA98, Metabolic Activation: HAMSTER, LIVER, S-9, AROCLOR 1254 (10 OR 30%), Method: PREINCUBATION
[4] = Test System: AMES SALMONELLA TYPHIMURIUM, Strain/Indicator: TA98, Metabolic Activation: NONE, Method: PREINCUBATION
[5] = Test System: AMES SALMONELLA TYPHIMURIUM, Strain/Indicator: TA98, Metabolic Activation: RAT, LIVER, S-9, AROCLOR 1254 (10 OR 30%), Method: PREINCUBATION
[6] = Test System: AMES SALMONELLA TYPHIMURIUM, Strain/Indicator: TA100, Metabolic Activation: NONE, Method: PREINCUBATION
[7] = Test System: AMES SALMONELLA TYPHIMURIUM, Strain/Indicator: TA100, Metabolic Activation: RAT, LIVER, S-9, AROCLOR 1254 (10 OR 30%), Method: PREINCUBATION
[8] = Test System: AMES SALMONELLA TYPHIMURIUM, Strain/Indicator: TA1535, Metabolic Activation: NONE, Method: PREINCUBATION
[9] = Test System: AMES SALMONELLA TYPHIMURIUM, Strain/Indicator: TA1535, Metabolic Activation: RAT, LIVER, S-9, AROCLOR 1254 (10 OR 30%), Method: PREINCUBATION
[10] = Test System: AMES SALMONELLA TYPHIMURIUM, Strain/Indicator: TA97, Metabolic Activation: NONE, Method: STANDARD PLATE
[11] = Test System: AMES SALMONELLA TYPHIMURIUM, Strain/Indicator: TA97, Metabolic Activation: RAT, LIVER, S-9, AROCLOR 1254, Method: STANDARD PLATE
[12] = Test System: AMES SALMONELLA TYPHIMURIUM, Strain/Indicator: TA98, Metabolic Activation: NONE, Method: STANDARD PLATE
[13] = Test System: AMES SALMONELLA TYPHIMURIUM, Strain/Indicator: TA98, Metabolic Activation: RAT, LIVER, S-9, AROCLOR 1254, Method: STANDARD PLATE
[14] = Test System: AMES SALMONELLA TYPHIMURIUM, Strain/Indicator: TA100, Metabolic Activation: NONE, Method: STANDARD PLATE
[15] = Test System: AMES SALMONELLA TYPHIMURIUM, Strain/Indicator: TA100, Metabolic Activation: RAT, LIVER, S-9, AROCLOR 1254, Method: STANDARD PLATE
[16] = Test System: AMES SALMONELLA TYPHIMURIUM, Strain/Indicator: TA102, Metabolic Activation: NONE, Method: STANDARD PLATE
[17] = Test System: AMES SALMONELLA TYPHIMURIUM, Strain/Indicator: TA102, Metabolic Activation: RAT, LIVER, S-9, AROCLOR 1254, Method: STANDARD PLATE

| SMILES | mutagenic call [1] | mutagenic call [2] | mutagenic call [3] | mutagenic call [4] | mutagenic call [5] | mutagenic call [6] | mutagenic call [7] | mutagenic call [8] | mutagenic call [9] | mutagenic call [10] | mutagenic call [11] | mutagenic call [12] | mutagenic call [13] | mutagenic call [14] | mutagenic call [15] | mutagenic call [16] | mutagenic call [17] | further results |
| --- | --- | --- | --- | --- | --- | --- | --- | --- | --- | --- | --- | --- | --- | --- | --- | --- | --- | --- |
| CCCCCCCCCC[N+](C)(C)Cc1ccccc1 | inactive; negative | inactive; negative | inactive; negative | inactive; negative | inactive; negative | inactive; negative | inactive; negative | inactive; negative | inactive; negative |  |  |  |  |  |  |  |  | mutagenic call (Test System: AMES SALMONELLA TYPHIMURIUM, Strain/Indicator: TA97, Metabolic Activation: HAMSTER, LIVER, S-9, AROCLOR 1254 (10 OR 30%), Method: PREINCUBATION): inactive; negative; mutagenic call (Test System: AMES SALMONELLA TYPHIMURIUM, Strain/Indicator: TA100, Metabolic Activation: HAMSTER, LIVER, S-9, AROCLOR 1254 (10 OR 30%), Method: PREINCUBATION): inactive; negative; mutagenic call (Test System: AMES SALMONELLA TYPHIMURIUM, Strain/Indicator: TA1535, Metabolic Activation: HAMSTER, LIVER, S-9, AROCLOR 1254 (10 OR 30%), Method: PREINCUBATION): inactive; negative |
| BrC(Br)C(Br)Br |  |  |  |  |  |  |  |  |  | active; positive | active; positive | inactive; negative | active; positive | inactive; negative | active; positive |  |  | mutagenic call (Test System: AMES SALMONELLA TYPHIMURIUM, Strain/Indicator: TA104, Metabolic Activation: NONE, Method: STANDARD PLATE): inactive; negative; mutagenic call (Test System: AMES SALMONELLA TYPHIMURIUM, Strain/Indicator: TA104, Metabolic Activation: RAT, LIVER, S-9, AROCLOR 1254, Method: STANDARD PLATE): active; positive; mutagenic call (Test System: AMES SALMONELLA TYPHIMURIUM, Strain/Indicator: TA1530, Metabolic Activation: NONE, Method: PREINCUBATION): active; positive |
| ClC1C(Br)C(Br)C(Br)C(Br)C1Br (stereo not drawn) | inactive; negative | inactive; negative | inactive; negative | inactive; negative | inactive; negative | inactive; negative | inactive; negative | inactive; negative | inactive; negative |  |  |  |  |  |  |  |  | mutagenic call (Test System: AMES SALMONELLA TYPHIMURIUM, Strain/Indicator: TA97, Metabolic Activation: HAMSTER, LIVER, S-9, AROCLOR 1254 (5, 10 OR 30%), Method: PREINCUBATION): inactive; negative; mutagenic call (Test System: AMES SALMONELLA TYPHIMURIUM, Strain/Indicator: TA100, Metabolic Activation: HAMSTER, LIVER, S-9, AROCLOR 1254 (10%), Method: PREINCUBATION): inactive; negative; mutagenic call (Test System: AMES SALMONELLA TYPHIMURIUM, Strain/Indicator: TA100, Metabolic Activation: HAMSTER, LIVER, S-9, AROCLOR 1254 (30%), Method: PREINCUBATION): inactive; negative; mutagenic call (Test System: AMES SALMONELLA TYPHIMURIUM, Strain/Indicator: TA1535, Metabolic Activation: HAMSTER, LIVER, S-9, AROCLOR 1254 (5 OR 10%), Method: PREINCUBATION): inactive; negative; mutagenic call (Test System: AMES SALMONELLA TYPHIMURIUM, Strain/Indicator: TA1535, Metabolic Activation: HAMSTER, LIVER, S-9, AROCLOR 1254 (30%), Method: PREINCUBATION): inactive; negative |
| CC(F)(F)F |  |  |  |  |  |  |  |  |  | inactive; negative | inactive; negative | inactive; negative | inactive; negative | inactive; negative | inactive; negative |  |  | mutagenic call (Test System: AMES SALMONELLA TYPHIMURIUM, Strain/Indicator: TA1535, Metabolic Activation: NONE, Method: STANDARD PLATE): inactive; negative; mutagenic call (Test System: AMES SALMONELLA TYPHIMURIUM, Strain/Indicator: TA1535, Metabolic Activation: RAT, LIVER, S-9, AROCLOR 1254, Method: STANDARD PLATE): inactive; negative; mutagenic call (Test System: AMES SALMONELLA TYPHIMURIUM, Strain/Indicator: TA1538, Metabolic Activation: NONE, Method: STANDARD PLATE): inactive; negative; mutagenic call (Test System: AMES SALMONELLA TYPHIMURIUM, Strain/Indicator: TA1538, Metabolic Activation: RAT, LIVER, S-9, AROCLOR 1254, Method: STANDARD PLATE): inactive; negative; mutagenic call (Test System: E. COLI, Strain/Indicator: WP2 UVRA (PKM101), Metabolic Activation: NONE, Method: STANDARD PLATE): inactive; negative; mutagenic call (Test System: E. COLI, Strain/Indicator: WP2 UVRA (PKM101), Metabolic Activation: RAT, LIVER, S-9, AROCLOR 1254, Method: STANDARD PLATE): inactive; negative |
| Clc1ccc(Cl)nc1 |  |  |  |  |  |  |  |  |  | inactive; negative | inactive; negative | inactive; negative | inactive; negative | inactive; negative | inactive; negative | inactive; negative | inactive; negative |  |
| CCOC(=O)c1[nH]c2ccccc2c1N=Cc1ccc(O)cc1 |  |  |  |  |  |  |  |  |  | active; positive | inactive; negative | inactive; negative | inactive; negative | inactive; negative | inactive; negative | inactive; negative | inactive; negative |  |
